Type in all cases: cell-based
The target of data set [1] is T1, human ANO6 (variant 5) (Homo sapiens, UniProt Q4KMQ2).
T1 construct: expressed in transfected cells; host or cells: Fisher rat thyroid (FRT) cells
T1 sequence (Q4KMQ2 1-931 isoform Q4KMQ2-2): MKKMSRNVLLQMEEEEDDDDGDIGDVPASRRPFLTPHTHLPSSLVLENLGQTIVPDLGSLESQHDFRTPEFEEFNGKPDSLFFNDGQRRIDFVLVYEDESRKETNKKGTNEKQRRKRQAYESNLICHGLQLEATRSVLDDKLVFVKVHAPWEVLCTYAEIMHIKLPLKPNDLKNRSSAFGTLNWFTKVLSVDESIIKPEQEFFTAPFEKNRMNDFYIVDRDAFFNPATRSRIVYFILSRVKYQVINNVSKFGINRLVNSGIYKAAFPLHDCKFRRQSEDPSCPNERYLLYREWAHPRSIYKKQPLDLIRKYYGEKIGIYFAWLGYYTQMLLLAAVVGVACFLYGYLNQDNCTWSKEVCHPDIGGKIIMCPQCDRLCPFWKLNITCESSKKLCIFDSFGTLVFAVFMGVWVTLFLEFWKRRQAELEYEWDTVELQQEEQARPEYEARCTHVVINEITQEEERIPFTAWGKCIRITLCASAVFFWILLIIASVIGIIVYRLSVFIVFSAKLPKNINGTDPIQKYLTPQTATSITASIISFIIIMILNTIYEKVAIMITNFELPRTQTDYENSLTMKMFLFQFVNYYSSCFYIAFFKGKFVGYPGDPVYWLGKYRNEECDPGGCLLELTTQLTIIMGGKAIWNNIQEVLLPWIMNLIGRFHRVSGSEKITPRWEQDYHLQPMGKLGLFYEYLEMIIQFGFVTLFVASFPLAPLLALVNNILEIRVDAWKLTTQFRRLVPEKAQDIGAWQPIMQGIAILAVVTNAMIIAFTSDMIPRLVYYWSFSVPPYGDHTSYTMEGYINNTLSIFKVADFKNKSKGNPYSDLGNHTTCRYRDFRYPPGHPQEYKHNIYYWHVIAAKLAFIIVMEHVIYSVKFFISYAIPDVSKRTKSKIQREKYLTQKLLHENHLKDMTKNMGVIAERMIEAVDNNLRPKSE
Kind of data set: Lact C2 assay (phosphatidylserine externalization scramblase function). To be noted: FRT cells expressing human ANO6, ionomycin 10 μM, read-out: % Inhibition (phosphatidylserine externalization inhibitory activity); for inhibition at 0.05 µM: 50 nM. The protocol: Experimental Example 2: Lact C2 Assay (Measuring Phosphatidylserine Externalization Scramblase Function)
Ionomycin (Alomonelab, cat. #I-700), DAPI (Sigma-Aldrich, cat. #D8417), paraformaldehyde (Biosesang, cat. #P2031), Lionheart FX automated fluorescence microscope (BioTek), Gen5™ software program (BioTek), and Image J analysis software program.
Fisher rat thyroid (FRT) cells expressing human ANO6 (variant 5; GenBank accession no. NP_001191732.1) were cultured at 37 °C under 5% CO2 conditions in DMEM/Ham's F-12 (1:1) medium supplemented with 10% Fetal Bovine Serum, 2 mM […], 100 units/mL penicillin, and 100 μg/mL streptomycin.
Fischer Rat Thyroid (FRT) cells (2×10^4 cells/well) expressing human ANO6 (variant 5) were cultured in a 96-well microplate for 24 hours. After the incubation, the cells were treated with compounds dissolved in DMSO to 1% v/v in each well at each concentration (50 nM, 100 nM, and 1 μM) and reacted for 10 minutes. Thereafter, each well was treated with ionomycin to a final concentration of 10 μM, allowed to react for 10 minutes, and then washed with 200 μL PBS. After washing, each well was treated with 50 μL of Lactadherin-C2 (Lact-C2)-GFP mixed in DMEM medium to a final concentration of 500 nM to stain phosphatidylserine, and cultured at 37 °C for 10 minutes. After completion of the reaction, the cells were washed with 200 μL PBS, and fixed with 4% paraformaldehyde for 5 minutes at room temperature. For morphological analysis, DAPI solution was added, and the cells were incubated for 15 minutes, followed by washing with PBS. The fluorescence intensity of Lact-C2-GFP bound to phosphatidylserine on the cell surface was measured using an automated fluorescence microscope. For quantitative analysis of the fluorescence intensity of Lact-C2-GFP, BioTek Gen5™ software and Image J analysis software programs were used.
Phosphatidylserine externalization inhibitory activity (%) by the compound was calculated through the following analysis method. Specifically, the background fluorescence value was subtracted from the measured Lact-C2-GFP fluorescence value, and the fluorescence value of the ionomycin non-treatment group and the ionomycin-treatment group in the same row where each test group was located in a 96-well microplate were calculated. In order to calculate the inhibitory activity (%) by the compound, the relative inhibitory activity was calculated by setting the compound and ionomycin non-treatment group to 100% inhibitory activity and the ionomycin alone treatment group to 0% inhibitory activity. To derive the results, the test was repeated three times, and the average values of the results were classified according to the range below and shown in Table 4 below (A: >60% inhibition, B: 30 to 60% inhibition, N/A: no test).

Data set [2] is described as follows: Cell viability measurement (MTS), Calu-3 cells. The following applies: human. In short, it runs like this: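 Calu-3 cells at about 20% confluency treated with compounds at 1, 3 and 10 μM (0.5% v/v DMSO) for 48 h at 37 °C. MTS added for 1 h; A490 minus A690 background, normalized to DMSO control as 100%; mean of 2–6 repeats, binned into viability ranges.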
A short description of data set [3]: Cell viability measurement (MTS), Vero cells. The following applies: monkey. In outline:
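Vero cells seeded to ~20% confluency, treated 48 h at 37 °C with compound at 1, 3 or 10 μM (0.5% v/v DMSO). MTS read at 490 nm minus 690 nm background after 1 h. Viability relative to DMSO-only control set at 100%, mean of 2–6 repeats, binned into ranges.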

Data set [4] relates to Severe Acute Respiratory Syndrome Coronavirus Type 2. Kind of data set: microbe, parasite or virus in culture. The following applies: Calu-3, 10 uM, virus strain NCCP-43388, 48 hours, read-out: Virus replication inhibition efficacy.
Data set [5] has the same test system. The experiment in a line: microbe, parasite or virus in culture. The following applies: Vero, 10 uM, virus strain NCCP-43388, 48 hours, read-out: Virus replication inhibition efficacy.

In patent US20260364068A1, “ANTIVIRAL USE OF HETEROARYL DERIVATIVE COMPOUND” (UIF (University Industry Foundation), Yonsei University, priority 2022, published 2026) one finds inhibition and viability data, which are given here for 16 compounds.

Read-outs that look alike come from different tables or passages of the source.

Turning to `COc1cc2nc(-c3cccc(Nc4ncc(-c5cccnn5)cn4)c3)[nH]c2cc1F` [Example 121, N-[3-(6-fluoro-5-methoxy-1H-benzo[d]imidazol-2-yl)phenyl]-5-pyridazin-3-yl-pyrimidin-2-amine], the inhibition at 1 µM in data set [1] was 30 to 60%.
Take `FC(F)Oc1ccc2nc(-c3cccc(Nc4ccc(-c5cccnn5)cc4)c3)[nH]c2c1` [Example 335, 3-(6-(difluoromethoxy)-1H-benzo[d]imidazol-2-yl)-N-(4-(pyridazin-3-yl)phenyl)aniline]: in data set [1], the inhibition at 0.05 µM is > 60% and the inhibition at 1 µM was > 60%.
On to `Clc1ccc2nc(-c3cccc(Nc4cnc(-c5ccccn5)cn4)c3)[nH]c2c1` [Example 324, N-(3-(6-chloro-1H-benzo[d]imidazol-2-yl)phenyl)-5-(pyridin-2-yl)pyrazin-2-amine], for which, in data set [1], the inhibition at 0.05 µM was 30 to 60% and the inhibition at 1 µM is > 60%. In data set [2], the viability at 48 h, 10 µM was > 80%.
The matching figures for `Fc1cc2nc(-c3cccc(Nc4ncc(-c5cscn5)cn4)c3)[nH]c2cc1F` [Example 332, N-(3-(5,6-difluoro-1H-benzo[d]imidazol-2-yl)phenyl)-5-(thiazol-4-yl)pyrimidin-2-amine]: > 60%, > 60% and > 80%.
The matching figures for `FC(F)Oc1cc2[nH]c(-c3cccc(Nc4ccc(-c5cccnn5)cc4)c3)nc2cn1` [Example 331, 3-(6-(difluoromethoxy)-1H-imidazo[4,5-c]pyridin-2-yl)-N-(4-(pyridazin-3-yl)phenyl)aniline]: 30 to 60%, > 60% and > 80%.
For `FC(F)Oc1cc2[nH]c(-c3cccc(Nc4cnc(-c5ccccn5)cn4)c3)nc2cn1` [Example 336, N-(3-(6-(difluoromethoxy)-1H-imidazo[4,5-c]pyridin-2-yl)phenyl)-5-(pyridin-2-yl)pyrazin-2-amine] the same measures were > 60%, > 60% and > 80%.
Take `FC(F)(F)c1cc2[nH]c(-c3cccc(Nc4cnc(-c5ccccn5)cn4)c3)nc2cn1` [Example 328, 5-(pyridin-2-yl)-N-(3-(6-(trifluoromethyl)-1H-imidazo[4,5-c]pyridin-2-yl)phenyl)pyrazin-2-amine]: in data set [1], the inhibition at 1 µM was > 60%.
As for `FC(F)(F)c1ccc2nc(-c3cccc(NC4CCC(c5cccnn5)CC4)c3)[nH]c2c1` (mixture of isomers) [Example 124, N-(4-(pyridazin-3-yl)cyclohexyl)-3-(6-(trifluoromethyl)-1H-benzo[d]imidazol-2-yl)aniline], the inhibition at 1 µM in data set [1] fell in the range of 30 to 60%.
Turning to `Fc1ccc2nc(-c3cccc(Nc4cnc(-c5ccccn5)cn4)c3)[nH]c2c1` [Example 323, N-(3-(6-fluoro-1H-benzo[d]imidazol-2-yl)phenyl)-5-(pyridin-2-yl)pyrazin-2-amine], in data set [1], the inhibition at 0.05 µM lay within 30 to 60% and the inhibition at 1 µM was > 60%. Moreover, the viability at 48 h, 10 µM in data set [2] is > 80%.
For the compound `FC(F)(F)Oc1ccc2nc(-c3cccc(Nc4cnc(-c5ccccn5)cn4)c3)[nH]c2c1` [Example 325, 5-(pyridin-2-yl)-N-(3-(6-(trifluoromethoxy)-1H-benzo[d]imidazol-2-yl)phenyl)pyrazin-2-amine], in data set [1], the inhibition at 1 µM is > 60%.
Regarding `Fc1cc2nc(-c3cccc(Nc4ncc(-c5ccccn5)cn4)c3)[nH]c2cc1F` [Example 313, N-(3-(5,6-difluoro-1H-benzo[d]imidazol-2-yl)phenyl)-5-(pyridin-2-yl)pyrimidin-2-amine], in data set [1], the inhibition at 0.05 µM was > 60% and the inhibition at 1 µM is > 60%. In data set [2], the viability at 48 h, 10 µM was > 80%.
Consider `Fc1ccc2nc(-c3cccc(Nc4ncc(-c5cccnn5)cn4)c3)[nH]c2c1` [Example 51, N-(3-(6-fluoro-1H-benzo[d]imidazol-2-yl)phenyl)-5-(pyridazin-3-yl)pyrimidin-2-amine], for which the inhibition at 0.05 µM in data set [1] was 30 to 60%. In data set [2], the viability at 48 h, 1 µM is > 80% and the viability at 48 h, 10 µM is > 80%. Moreover, the viability at 48 h, 3 µM in data set [2] (3 μM) is > 80%.
`FC(F)Oc1cc2[nH]c(-c3cccc(Nc4ncc(-c5ccccn5)cn4)c3)nc2cn1` [Example 329, N-(3-(6-(difluoromethoxy)-1H-imidazo[4,5-c]pyridin-2-yl)phenyl)-5-(pyridin-2-yl)pyrimidin-2-amine]: in data set [1], the inhibition at 0.05 µM is > 60% and the inhibition at 1 µM is > 60%. This compound registered a viability at 48 h, 10 µM in data set [2] of 50 to 80%.
`Fc1cc2[nH]c(-c3cccc(Nc4cnc(-c5ccccn5)cn4)c3)nc2cn1` [Example 330, N-(3-(6-fluoro-1H-imidazo[4,5-c]pyridin-2-yl)phenyl)-5-(pyridin-2-yl)pyrazin-2-amine]: the inhibition at 1 µM in data set [1] is > 60%. In addition, in data set [2], the viability at 48 h, 10 µM was > 80%.
In the case of `c1ccc(-c2ccc(Nc3cccc(-c4nc5ccccc5[nH]4)c3)nn2)cc1` [Example 2, N-(3-(1H-benzo[d]imidazol-2-yl)phenyl)-6-phenylpyridazin-3-amine], the results for the viability at 48 h, 1 µM in data set [2] and in data set [3] (1 μM) were 50 to 80% and > 80%, respectively. For the same compound, the viability at 48 h, 3 µM in data set [3] (3 μM) is > 80%. In data set [3] (10 μM), this compound returned a viability at 48 h, 10 µM of 50 to 80%. The inhibition at 10 µM in data set [4] and in data set [5] was > 60% in each case.
In the case of `CN(Cc1ccccc1)c1ccc2nc(-c3cccc(Nc4ccc(-c5cccnn5)cc4)c3)[nH]c2c1` [Example 280, N-benzyl-N-methyl-2-(3-((4-(pyridazin-3-yl)phenyl)amino)phenyl)-1H-benzo[d]imidazol-6-amine], the inhibition at 0.05 µM in data set [1] lay in the range of 30 to 60%. In addition, the inhibition at 1 µM in data set [1] was > 60%. Also, the inhibition at 10 µM in data set [4] and in data set [5] was > 60% throughout.
